# Results as given in patent publication US8535897B2, “Assays for non-apoptotic cell death and uses thereof” (The Trustees of Columbia University in the City of New York, priority 2006, dated 2013).
# Columns and labels:
# Format in all cases: cell-based, human
# [1] = system: BJ-TERT/LT/ST/RASV12 cells; assay: Annexin V staining; conditions: erastin 9 μM; camptothecin 1 μM
# Method: The percentage of cells in the indicated M1 region were 6%, 6%, and 38% in untreated, erastin-treated (9 μM), and camptothecin-treated (1 μM), respectively.
# [2] = system: BJ-TERT/LT/ST/RASV12 cells; assay: Nuclear morphology, fluorescence microscopy (Hoechst 33342)
# Method: DNA was stained used Hoechst 33342.
# To characterize the type of cell death induced by erastin, the effect of erastin was tested alongside camptothecin and staurosporine, which induce apoptotic cell death^39. Apoptosis is characterized by alterations in nuclear morphology, including pyknosis, karyorhexis and margination of chromatin^93. Nuclear morphology of camptothecin-treated and erastin-treated BJ-TERT/LT/ST/RAS^V12 cells was monitored using fluorescence microscopy. […] Apoptosis-inducing compounds (staurosporine and/or camptothecin) were tested alongside erastin in all of these assays to confirm the functionality of the assay. […] Therefore, in certain aspects the invention provides a genotype-selective anti-tumor agent which induces cell death via a non-apoptotic mechanism of oxidative cell death.
# [3] = system: PARP1; assay: PARP1 cleavage, western blot; conditions: BJ-TERT/LT/ST/RAS^V12; staurosporine 1 μM 6 h, camptothecin 1 μM 18 h, erastin 20 μg/mL
# Method: BJ-TERT/LT/ST/RAS^V12 tumor cells were seeded in six-well dishes, incubated overnight at 37° C. with 5% CO2 and were treated with nothing (NT), staurosporine (ST, 1 μM) for 6 h, camptothecin (C, 1 μM) for 18 h, or erastin (20 μg/mL) for the indicated time, lysed and analyzed by western blot with an anti-PARP1 antibody. A relatively high concentration of erastin was used to ensure loss of PARP cleavage was not due to a concentration-dependent effect.
# For western blots, medium was aspirated, and each dish was washed twice with 10 mL of ice-cold PBS. Cells were lysed with 200 μL of buffer (50 mM HEPES, 40 mM NaCl, 2 mM EDTA, 0.5% Triton-X, 1.5 mM sodium orthovanadate, 50 mM NaF, 10 mM Na Pyrophosphate, 10 mM Na B-glycerophosphate and protease inhibitor tablet, pH 7.4). […]
# [4] = system: BJELR cells; assay: Sensitivity after upregulation of VDACs by nucleofection
# Text: Quantitative western blot showing the ratio of VDACs (top band, green) to eif4E (bottom band, red) (e). […] Green, untransfected BJELR cells; blue, mock nucleofected BJELR cells; red, VDAC2/3-nucleofected BJELR cells (f).
# In certain aspects, the invention provides that erastin acts by a gain-of-function mechanism and that cells with more VDAC proteins are more sensitive to erastin. A gain-of-function mechanism operates in cells which have increased levels of topoisomerase I and are thus more sensitive to camptothecin^149. […] In other embodiments, cell lines can be stably transfected with vectors expressing VDAC1, 2, and/or 3. Thus, increased VDAC expression leads to erastin sensitivity which is consistent with a gain of function mechanism. Furthermore, a knockdown of VDACs causes erastin resistance.
# [5] = system: cytochrome c; assay: Cytochrome c release from mitochondria; conditions: BJ-TERT/LT/ST/RAS^V12; staurosporine 1 μM or erastin 20 μg/mL for 6 h
# Method: BJ-TERT/LT/ST/RAS^V12 cells were seeded in polystyrene 100×20 mm dishes in 10 ml media. After overnight incubation at 37° C. with 5% CO2, the cells were treated with nothing (NT), staurosporine (ST, 1 μM) or erastin (20 μg/mL) for 6 h, washed with 10 mL ice-cold PBS and lysed by passage through a 25-gauge needle (five strokes). Cell lysates were centrifuged at 1850 rpm for 5 min at 4° C. to remove the nuclear fraction. Mitochondria were removed from the soluble cytosolic fraction by pelleting at 10,000 rpm. Supernatant and mitochondrial pellets were solubilized in SDS-PAGE loading buffer and analyzed by western blot using anti-cytochrome c and pan-VDAC antibodies and IR-dye-linked secondary antibodies. […] Fluorescence was detected on a LI-COR Odyssey infrared scanner.
# (a) BJ-TERT/LT/ST/RAS^V12 cells were treated with 9 μM erastin A1 for the indicated length of time, and the number of viable cells determined. […] Red fluorescence resulting from reduction of alamar blue was detected on a Victor3 platereader. […] (e) The number of viable cells was quantified under each condition using a hemacytometer. […] BJ-TERT/LT/ST/RAS^V12 (shown in histogram plots, and in line graph as dark diamonds) or BJ-TERT cells (shown in line graph only, light circles) were treated with 4.6-μM erastin A1 and the level of intracellular oxidative species determined. […]
structure (smiles),measurement,setting,value
CC[C@@]1(O)C(=O)OCc2c1cc1n(c2=O)Cc2cc3ccccc3nc2-1 [camptothecin],percentage of cells in the M1 region (Annexin V staining),[1],38%
same,"fragmented nuclei, of total nuclei",[2]; Hoechst 33342,10%-20%
same,nuclear morphology,[2]; fluorescence microscopy,karyorhexis and margination of chromatin were visible
same,PARP1 cleavage,[3],degraded
COc1cc([C@@H]2c3cc4c(cc3[C@H](O)[C@H]3COC(=O)[C@H]23)OCO4)cc(OC)c1OC [podophyllotoxin],change in sensitivity/potency after upregulation of VDAC proteins by nucleofection,[4],did not change the potency
CN[C@@H]1C[C@H]2O[C@@](C)([C@@H]1OC)n1c3ccccc3c3c4c(c5c6ccccc6n2c5c31)C(=O)NC4 [staurosporine],cytochrome c release from mitochondria,[5],released from mitochondria
